According to patent US11045489B2, “Prognostic methods and systems of treatment for acute lymphoblastic leukemia” (MOR RESEARCH APPLICATIONS LTD., priority 2014, dated 2021):

Legend:
Nalm-6 cells [1] = assay: Sensitivity to FK866 (NAD+ levels) of NALM-6 cells transfected with miR-451 mimic or inhibitor; assay type: cell-based; settings: 3 hours
Method: The sensitivity of NALM-6 cells to the NAMPT inhibitor FK866 was measured in cells following transfection with miR-451 mimic or miR-451 inhibitor (FIG. 8). The sensitivity was measured by levels of NAD^+. […] Thus, miR-451 expression can distinguish between patients that could benefit from treatment with NAMPT inhibitors, such as FK866.

Nalm-6 cells [2] = assay: Apoptosis by FACS in Nalm-6 cells treated with FK866; assay type: cell-based; settings: 1 nM, 48 hours
Method: (§1) Nalm-6 cells were treated for 1, 3, and 6 hours with 1 nM FK866 (Sigma) and NAD^+ formation was measured using NAD assay as described. […] To measure the effect of NAD^+ depletion following FK866 treatment on Nalm-6 cells, apoptosis and viability were measured. Nalm-6 cells were treated for 48 hours with 1 nM FK866 and apoptosis was measured using FACS.

Nalm-6 cells [3] = assay: NAD assay in Nalm-6 cells treated with FK866; assay type: cell-based; settings: 1 nM, 1, 3 and 6 hours
Method: (§2) NAMPT is the rate-limiting enzyme in the NAD^+ biosynthetic pathway. Thus, NAD^+ levels in the stimulated cells were measured using a standard NAD^+ assay (Biovision NADH/NAD Quantification Kit).
as §1

cellular NAD^+ levels = assay: NAD+ assay in TPA stimulated cells; assay type: cell-based
Method: as §2

NAMPT [4] = assay: NAMPT expression by FACS after TPA treatment; assay type: cell-based; settings: Peripheral blood cells, 50 ng/ml TPA, 24 hours
Method: Studies by several investigators have shown that 12-0-tetradecanoylphorbol-13-acetate (TPA) (Sigma) is an extraordinarily potent tumor promoter and stimulates protein kinase C (PKC). Since NAMPT is over-expressed in several tumors, it was believed that it might be possible to achieve NAMPT stimulation by TPA treatment. To test this hypothesis. Peripheral blood cells were treated with 50 ng/ml TPA for 24 hours and NAMPT expression was measured by FACS using a specific NAMPT antibody.

NAMPT [5] = assay: NAMPT expression by FACS in transfected Nalm-6 cells; assay type: cell-based; settings: P<0.05
Method: To determine the effects of miR-451 on NAMPT expression, Nalm-6 cells were transfected with miR-451 mimic (SEQ ID NO: 2) and miR-451 inhibitor (GeneCopoeia miArrest miR-451, an inhibitor expression clone) and NAMPT expression was measured by FACS analysis using a specific NAMPT antibody.

NAMPT 3′-UTR = assay: Luciferase reporter assay with NAMPT 3′-UTR; assay type: cell-based; settings: P<0.05
Method: To confirm that NAMPT is a direct target of miR-451, luciferase reporter vectors were generated that contained the NAMPT 3′-UTR (LightSwitch NAMPT 3′UTR Reporter GoClone). Luciferase reporter assays (LightSwitch Luciferase Assay; SwitchGear) were then performed in the presence and absence of miR-451mimic and inhibitor to determine whether NAMPT was a direct downstream target of miR-451. The relative luciferase activity of the reporter that contained NAMPT 3′-UTR was decreased in 80% when miR-451 mimics were transfected.

Nalm-6 cells [6] = assay: Tumor growth of transfected Nalm-6 cells injected s.c. into NOD/SCID mice; assay type: in vivo
Method: To further study the putative tumor-suppressive function of hsa-miR-451 in vivo, 10^7 viable Nalm-6 untransfected cells, transfected in vitro with miR-451, or transfected with scrambled control nucleic acid, were injected s.c. into the right flanks of 6-week-old female NOD/SCID mice. […] On day 26, the median tumor volume in the scrambled control mice and the miR-451 mice were 204.69 mm^3 (SE=63.96) and 23.32 mm^3 (SE=13.12) respectively (P=0.019). At the end of the experiment mice were sacrificed and the tumors were weighted. The median tumor weight in the scrambled control mice and the miR-451 mice were 0.0966 gr (SE=0.040) and 0.0159 gr (SE=0.0009) respectively (P=0.046) (FIG. 4C).

Phosphorylated STAT5 = assay: Phospho-STAT5 levels by FACS in transfected NALM-6 cells; assay type: cell-based; settings: NALM-6 cell line
Method: Phosphorylated STAT5 (phospho-STAT5) levels were measured by FACS analysis following transfection of miR-1290 mimic (overexpression) into NALM-6 cell line. An increase of 50% in the levels of pSTAT5 protein is evident in the cells expressing high levels of miR-1290 (FIG. 11).

SOCS4 = SOCS4 protein levels by Western blotting in transfected Nalm6 cells; assay type: cell-based; settings: Nalm6 cell line, over-expression of miR-1290, Western blotting
Method: Following transfection of miR-1290 mimic (SEQ ID NO: 4, over-expression), miR-1290 inhibitor (SEQ ID NO: 5, silencing), and miR-scramble (control), into the Nalm6 cell line, the protein levels of SOCS4 were measured using Western blotting (p=0.029; FIG. 9). The values shown in the figure are mean±S.D from 3 experiments.

O=C(/C=C/c1cccnc1)NCCCCC1CCN(C(=O)c2ccccc2)CC1 [FK866]
change in NAD+ production after FK866 treatment compared to Nalm-6/miR-NC (Nalm-6 cells [1]; Nalm-6/miR-451 cells (miR-451 mimic)): less change
change in NAD+ production after FK866 treatment compared to Nalm-6/miR-NC (Nalm-6 cells [1]; Nalm-6/miR-inhibitor cells, p=0.003): more than 5 fold
apoptosis (Nalm-6 cells [2]): induced apoptosis
NAD^+ detection following treatment (Nalm-6 cells [3]): gradual decrease

CCCCCCCCCCCCCC(=O)O[C@@H]1[C@@H](C)[C@@]2(O)[C@@H](C=C(CO)C[C@]3(O)C(=O)C(C)=C[C@@H]23)[C@H]2C(C)(C)[C@]12OC(C)=O [TPA, 12-0-tetradecanoylphorbol-13-acetate]
cellular NAD^+ levels higher (cellular NAD^+ levels): 2 fold
increase in NAMPT expression levels (NAMPT [4]): more than 4 folds

miR-451 mimic: miR-451 mimic (SEQ ID NO: 2) transfected into Nalm-6 cells by electroporation (AAACCGUUACCAUUACUGAGUU; listed as RNA, chemistry not given here; listed as Homo sapiens)
NAMPT protein expression decreased by (NAMPT [5]): 46%
relative luciferase activity of NAMPT 3′-UTR reporter decreased (NAMPT 3′-UTR): 80%
tumor growth (Nalm-6 cells [6]; NOD/SCID mice, Nalm-6/miR-451 cells s.c., versus scrambled miR control): significantly decreased tumor growth
median tumor volume (Nalm-6 cells [6]; day 26, NOD/SCID mice, Nalm-6 cells transfected in vitro, P=0.019 vs scrambled control): 23.32 mm^3
median tumor weight (Nalm-6 cells [6]; end of the experiment, NOD/SCID mice, P=0.046 vs scrambled control): 0.0159 gr

miR-1290 mimic: miR-1290 mimic (SEQ ID NO: 4, over-expression) transfected into Nalm6 cell line (UGGAUUUUUGGAUCACCUGAUCCAAAAAU; listed as RNA, chemistry not given here)
increase in the levels of pSTAT5 protein (Phosphorylated STAT5): 50%
SOCS4 protein levels (SOCS4): down-regulation
